From patent publication US8383139B2 (Bayer CropScience AG, priority 2008, dated 2013)

Key:
[1] = tested on: Septoria tritici; experiment: Septoria tritici test (wheat)/protective; assay type: in vivo; details: Zymoseptoria tritici, 504 h, 500 ppm active substance, protective, evaluation 21 days after inoculation, read-out: degree of effectiveness
Procedure: • Solvent: 50 parts by weight of N,N-dimethylacetamide • Emulsifier: 1 part by weight of alkylaryl polyglycol ether (polyoxyethylene (16) tristearylphenyl ether) To prepare a suitable active substance composition, 1 part by weight of active substance is mixed with the given amounts of solvent and emulsifier and the concentrate is diluted to the desired concentration using water. For the testing of protective effectiveness, young plants are sprayed with the active substance composition at the application rate given. After the spray coating has dried on, the plants are sprayed with a suspension of spores of Septoria tritici. The plants remain in an incubation chamber at 20° C. and 100% relative humidity for 48 hours. The plants are afterwards placed under a transparent hood at 15° C. and 100% relative humidity for a further 60 hours. The plants are placed in a greenhouse at a temperature of approximately 15° C. and a relative humidity of 80%. Evaluation is carried out 21 days after the inoculation. In this connection, 0% means a degree of effectiveness corresponding to that of the control, while a degree of effectiveness of 100% means that no infestation is observed.

[2] = tested on: Uromyces appendiculatus; experiment: Uromyces test (beans)/protective; assay type: in vivo; details: 240 h, 100 ppm active substance, protective, evaluation 10 days after inoculation, read-out: degree of effectiveness
Procedure: • Solvents: 24.5 parts by weight of acetone • 24.5 parts by weight of dimethylacetamide • Emulsifier: 1 part by weight of alkylaryl polyglycol ether (polyoxyethylene (16) tristearylphenyl ether)
To prepare a suitable active substance composition, 1 part by weight of active substance is mixed with the given amounts of solvents and emulsifier and the concentrate is diluted to the desired concentration using water.
For the testing of protective effectiveness, young plants are sprayed with the active substance composition in the application rate given. After the spray coating has been dried on, the plants are inoculated with an aqueous suspension of the spores of the bean rust pathogen Uromyces appendiculatus and then remain in an incubation chamber at approximately 20° C. and 100% relative humidity for 1 day.
The plants are then placed in a greenhouse at approximately 21° C. and a relative humidity of approximately 90%.
Evaluation is carried out 10 days after the inoculation. In this connection, 0% means a degree of effectiveness corresponding to that of the control, while a degree of effectiveness of 100% means that no infestation is observed.

[3] = tested on: Puccinia triticina; experiment: Puccinia triticina test (wheat)/protective; assay type: in vivo; details: 192 h, 500 ppm active substance, protective, evaluation 8 days after inoculation, read-out: degree of effectiveness
Procedure: • Solvent: 50 parts by weight of N,N-dimethylacetamide • Emulsifier: 1 part by weight of alkylaryl polyglycol ether (polyoxyethylene (16) tristearylphenyl ether) To prepare a suitable active substance composition, 1 part by weight of active substance is mixed with the given amounts of solvent and emulsifier and the concentrate is diluted to the desired concentration using water. For the testing of protective effectiveness, young plants are sprayed with the active substance composition in the application rate given. After the spray coating has been dried on, the plants are sprayed with spores with a suspension of spores of Puccinia triticina. The plants remain in an incubation chamber at 20° C. and 100% relative humidity for 48 hours. The plants are placed in a greenhouse at a temperature of approximately 20° C. and a relative humidity of approximately 80%. Evaluation is carried out 8 days after the inoculation. In this connection, 0% means a degree of effectiveness corresponding to that of the control, while a degree of effectiveness of 100% means that no infestation is observed.

[4] = tested on: Sphaerotheca fuliginea; experiment: Sphaerotheca test (cucumber)/protective; assay type: in vivo; details: Podosphaera fuliginea, 168 h, 500 ppm active substance, protective, evaluation 7 days after inoculation, read-out: degree of effectiveness
Procedure: • Solvents: 49 parts by weight of N,N-dimethylformamide • Emulsifier: 1 part by weight of alkylaryl polyglycol ether (polyoxyethylene (16) tristearylphenyl ether) To prepare a suitable active substance composition, 1 part by weight of active substance is mixed with the given amounts of solvents and emulsifier and the concentrate is diluted to the desired concentration using water. For the testing of protective effectiveness, young cucumber plants are sprayed with the active substance composition in the application rate given. One day after the treatment, the plants are inoculated with a suspension of spores of Sphaerotheca fuliginea. Subsequently, the plants are placed in a greenhouse at 70% relative humidity and at a temperature of 23° C. Evaluation is carried out 7 days after the inoculation. In this connection, 0% means a degree of effectiveness corresponding to that of the control, while a degree of effectiveness of 100% means that no infestation is observed.

[5] = log P by HPLC on reversed-phase columns (C 18), EEC Directive 79/831 Annex V.A8; assay type: physicochemical; details: for chromatographic logP: reversed-phase C18 HPLC column, pH 2.3, [a] HPLC, read-out: log p
[6] = acid region pH 2.3, 0.1% aqueous phosphoric acid and acetonitrile
[7] = [b] LC-MS, acid region pH 2.7, 0.1% aqueous formic acid and acetonitrile

| Structure (SMILES) | chromatographic logP [5, 6] | log p [5, 7] | pest or weed control at 500 ppm [3] [%] | pest or weed control at 500 ppm [4] [%] | further results |
| --- | --- | --- | --- | --- | --- |
| Cc1cc(Oc2nc(Cc3ccc(Cl)cc3)ns2)c(Cl)cc1N=CN1CCCCC1 [Example 4, 5-chloro-4-{[3-(4-chlorobenzyl)-1,2,4-thiadiazol-5-yl]oxy}-2-methyl-N-(piperidin-1-ylmethylidene)aniline] | 2.53 | – | ≥ 70 | ≥ 70 | pest or weed control at 500 ppm [1]: ≥ 70%; pest or weed control at 100 ppm [2]: ≥ 70% |
| Cc1cc(Oc2nc(Cc3ccc(Cl)cc3Cl)ns2)c(C)cc1N=CN(C)C(C)C [Example 12, N′-(4-{[3-(2,4-dichlorobenzyl)-1,2,4-thiadiazol-5-yl]oxy}-2,5-dimethylphenyl)-N-methyl-N-(propan-2-yl)imidoformamide] | 2.24 | – | ≥ 70 | ≥ 70 | pest or weed control at 500 ppm [1]: ≥ 70%; pest or weed control at 100 ppm [2]: ≥ 70% |
| CCN(C)C=Nc1cc(C)c(Oc2nc(Cc3cc(Br)ccc3C)ns2)cc1C [Example 14, N′-(4-{[3-(5-bromo-2-methylbenzyl)-1,2,4-thiadiazol-5-yl]oxy}-2,5-dimethylphenyl)-N-ethyl-N-methylimidoformamide] | 2.28 | – | ≥ 70 | ≥ 70 | pest or weed control at 500 ppm [1]: ≥ 70%; pest or weed control at 100 ppm [2]: ≥ 70% |
| CCN(C)C=Nc1cc(C)c(Oc2nc(Cc3cccc(OC)c3)ns2)cc1C [Example 16, N-ethyl-N′-(4-{[3-(3-methoxybenzyl)-1,2,4-thiadiazol-5-yl]oxy}-2,5-dimethylphenyl)-N-methylimidoformamide] | 1.7 | – | ≥ 70 | ≥ 70 | pest or weed control at 500 ppm [1]: ≥ 70% |
| Cc1cc(Oc2nc(C(C)c3ccc(Cl)cc3)ns2)c(C)cc1N=CN1CCCCC1 (stereo not shown) [Example 18, 4-({3-[1-(4-chlorophenyl)ethyl]-1,2,4-thiadiazol-5-yl}oxy)-2,5-dimethyl-N-(piperidin-1-ylmethylidene)aniline] | 2.41 | – | ≥ 70 | ≥ 70 | pest or weed control at 100 ppm [2]: ≥ 70% |
| Cc1cc(Oc2nc(C(C)(C)c3ccc(Cl)cc3)ns2)c(Cl)cc1N=CN(C)C(C)C [Example 30, N′-[5-chloro-4-({3-[2-(4-chlorophenyl)propan-2-yl]-1,2,4-thiadiazol-5-yl}oxy)-2-methylphenyl]-N-methyl-N-(propan-2-yl)imidoformamide] | 2.86 | – | ≥ 70 | ≥ 70 | – |
| Cc1cc(Oc2nc(Cc3ccc(Br)cc3)ns2)c(C)cc1N=CN1CCCCC1 [Example 33, 4-{[3-(4-bromobenzyl)-1,2,4-thiadiazol-5-yl]oxy}-2,5-dimethyl-N-(piperidin-1-ylmethylidene)aniline] | 2.17 | – | ≥ 70 | ≥ 70 | pest or weed control at 500 ppm [1]: ≥ 70% |
| Cc1cc(Oc2nc(Cc3cccc(Cl)c3)ns2)c(C)cc1N=CN1CCCCC1 [Example 34, 4-{[3-(3-chlorobenzyl)-1,2,4-thiadiazol-5-yl]oxy}-2,5-dimethyl-N-(piperidin-1-ylmethylidene)aniline] | 2.13 | – | ≥ 70 | ≥ 70 | pest or weed control at 500 ppm [1]: ≥ 70%; pest or weed control at 100 ppm [2]: ≥ 70% |
| Cc1cc(Oc2nc(C3(c4ccc(Cl)cc4)CC3)ns2)c(Cl)cc1N=CN(C)C(C)C [Example 41, N′-[5-chloro-4-({3-[1-(4-chlorophenyl)cyclopropyl]-1,2,4-thiadiazol-5-yl}oxy)-2-methylphenyl]-N-methyl-N-(propan-2-yl)imidoformamide] | 2.71 | – | ≥ 70 | ≥ 70 | pest or weed control at 500 ppm [1]: ≥ 70% |
| Cc1cc(Oc2nc(Cc3ccc(Cl)c(Cl)c3)ns2)c(C)cc1N=CN1CCCCC1 [Example 48, 4-{[3-(3,4-dichlorobenzyl)-1,2,4-thiadiazol-5-yl]oxy}-2,5-dimethyl-N-(piperidin-1-ylmethylidene)aniline] | – | – | – | ≥ 70 | pest or weed control at 100 ppm [2]: ≥ 70% |
| COc1ccccc1Cc1nsc(Oc2cc(C)c(N=CN3CCCCC3)cc2C)n1 [Example 50, 4-{[3-(2-methoxybenzyl)-1,2,4-thiadiazol-5-yl]oxy}-2,5-dimethyl-N-(piperidin-1-ylmethylidene)aniline] | 2.05 | – | – | ≥ 70 | pest or weed control at 500 ppm [1]: ≥ 70%; pest or weed control at 100 ppm [2]: ≥ 70% |
| Cc1cc(Oc2nc(Cc3ccc(SC(F)(F)F)cc3)ns2)c(C)cc1N=CN(C)CC(F)F [Example 125] | – | 2.68^[b] | – | – | – |
| Cc1cc(Oc2nc(Cc3ccc(SC(F)(F)F)cc3)ns2)c(C)cc1N=CN(C)C1CC1 [Example 126] | – | 1.83^[b] | – | – | – |
| Cc1cc(Oc2nc(Cc3ccc(F)cc3)ns2)c(C)cc1N=CN(C)C1CC1 [Example 127] | – | 1.83^[b] | – | – | – |
| CCOCC(C1CC1)N(C)C=Nc1cc(C)c(Oc2nc(Cc3ccc(SC(F)(F)F)cc3)ns2)cc1C (stereo not shown) [Example 128] | – | 2.92^[b] | – | – | – |
| Cc1cc(Oc2nc(Cc3ccc(C(F)(F)F)cc3)ns2)c(C)cc1N=CN(C)CC(F)F [Example 129] | – | 2.38^[b] | – | – | – |
| Cc1cc(Oc2nc(Cc3ccc(C(F)(F)F)cc3)ns2)c(C)cc1N=CN(C)C1CC1 [Example 130] | – | 2.28^[b] | – | – | – |
| Cc1cc(Oc2nc(Cc3ccc(F)cc3)ns2)c(C)cc1N=CN(C)CC(F)F [Example 131] | – | 1.99^[b] | – | – | – |
| CCOCC(NC=Nc1cc(C)c(Oc2nc(Cc3ccc(Cl)cc3)ns2)cc1C)C1CC1 (stereo not shown) [Example 139] | – | – | – | – | log p ([5]; [a] HPLC, acid region pH 2.3, 0.1% aqueous phosphoric acid and acetonitrile): 2.7^[a] |

More lines, main results first:

| chromatographic logP [5, 6] | log p [5, 7] | Structure (SMILES) | pest or weed control at 500 ppm [3] [%] | pest or weed control at 500 ppm [4] [%] | further results |
| --- | --- | --- | --- | --- | --- |
| – | 2.26^[b] | CCOCC(C1CC1)N(C)C=Nc1cc(C)c(Oc2nc(Cc3ccc(F)cc3)ns2)cc1C (stereo not shown) [Example 132] | – | – | – |
| – | 2.43^[b] | CCOCC(C1CC1)N(C)C=Nc1cc(C)c(Oc2nc(Cc3ccc(C(F)(F)F)cc3)ns2)cc1C (stereo not shown) [Example 133] | – | – | – |
| – | 2.36^[b] | CCOCC(C1CC1)N(C)C=Nc1cc(C)c(Oc2nc(Cc3ccc(OC)cc3)ns2)cc1C (stereo not shown) [Example 134] | – | – | – |
| – | 1.92^[b] | COc1ccc(Cc2nsc(Oc3cc(C)c(N=CN(C)C4CC4)cc3C)n2)cc1 [Example 135] | – | – | – |
| – | 1.87^[b] | COc1ccc(Cc2nsc(Oc3cc(C)c(N=CN(C)CC(F)F)cc3C)n2)cc1 [Example 136] | – | – | – |
| – | 2.25^[b] | Cc1ccc(Cc2nsc(Oc3cc(C)c(N=CN(C)CC(F)F)cc3C)n2)cc1 [Example 137] | – | – | – |
| – | 2.19^[b] | Cc1ccc(Cc2nsc(Oc3cc(C)c(N=CN(C)C4CC4)cc3C)n2)cc1 [Example 138] | – | – | – |
| – | 2.4^[b] | CCOCC(C1CC1)N(C)C=Nc1cc(C)c(Oc2nc(Cc3ccc(C)cc3)ns2)cc1C (stereo not shown) [Example 140] | – | – | – |
| – | 2.2^[b] | Cc1cc(Oc2nc(Cc3ccc(OC(F)(F)F)cc3)ns2)c(C)cc1N=CN(C)C1CC1 [Example 141] | – | – | – |
| – | 2.46^[b] | Cc1cc(Oc2nc(Cc3ccc(OC(F)(F)F)cc3)ns2)c(C)cc1N=CN(C)CC(F)F [Example 142] | – | – | – |
| – | 2.75^[b] | CCOCC(C1CC1)N(C)C=Nc1cc(C)c(Oc2nc(Cc3ccc(OC(F)(F)F)cc3)ns2)cc1C (stereo not shown) [Example 143] | – | – | – |
